Experimental data published in US7625917B2, “Thiolesters and uses thereof” (priority 1998, dated 2009).

Test system: HIV-1RF
Test: XTT cytoprotection assay (antiviral activity)
Type: cell-based

In the case of `O=C(O)CCCC[n+]1ccccc1.[Br-]` [Compound 53, 5-pyridiniovaleric acid], the “antiviral activity (in words)” value is reported as “without antiviral activity” and the EC50 (Human immunodeficiency virus 1, Table 6, read-out: EC50 %) is reported as > 316 µM.
